Marks after values point to notes of the source that are not given here.
How the values were obtained:
[1] = system: NCI-H1975 nude mice transplanted tumor; experiment: In vivo pharmacodynamics evaluation, NCI-H1975 nude mice transplanted tumor; set-up: species or system BALB/c nude mice; settings: 20 mg/kg, qd, gavage, 14 days
Method: BALB/c nude mice, female, 6 to 7 weeks of age, weight 20 g±2 g, purchased from Shanghai silaike experimental animal Co. Ltd., SPF environment.
The logarithmic growth phase NCI-H1975 cells cultured in vitro were digested with trypsin, washed with PBS for three times, the cell survival rate was detected by trypan blue exclusion to be >90%, the cell concentration was adjusted to 1×10^7/mL with PBS, which was implanted subcutaneously in back forelimb of the nude mice with 0.2 mL/pcs under aseptic condition. After tumor formation, the tumor were cultured for two passages in vivo, the tumor were stripped out to sterile culture plate when growing to the volume of 300 to 500 mm^3, a small amount of PBS was added, the tumor tissue with vigorous growth were cut into about 1.5 mm^3 tumor blocks, inoculated in right armpit of the nude mice. The diameter of tumor was measured with vernier caliper, when the tumor grew to 100 to 200 mm^3, then the animal were randomly grouping, […], gavage administration, once a day or every other day, continuously administrated for 14 days (d14) and observed for 7 days (d22), the negative control group was administrated with the same amount of solvent (saline solution of 1% DMSO), during the period of administration and recovery, the body weight and tumor size of the nude mice were measured weekly 2 to 3 times. The tumor volume and relative tumor volume were calculated according to the measured data, and the calculation formula of the tumor volume (TV) was TV=1/2×a×b^2, of which a and b represent the tumor length and diameter respectively. The relative tumor volume (RTV) was calculated according to the measured results, and the calculation formula was: RTV=Vt/V0, wherein V0 represents the tumor volume at the beginning of the experiment, Vt represents the volume of the tumor each measured.

[2] = system: A549 (human lung cancer cell lines); experiment: Growth inhibition test in tumor cells (CCK8), A549; type: cell-based; settings: 72 h
[3] = system: A431 (human epithelial carcinoma cell lines); experiment: Growth inhibition test in tumor cells (CCK8), A431; type: cell-based; settings: A-431, 72 h
[4] = target: Her-2 enzyme (Homo sapiens (Human), UniProt P04626); experiment: HTRF kinEASE TK in vitro kinase assay, Her-2; type: biochemical; settings: 30 min enzyme reaction, read-out: IC50 against Her-2
[5] = system: NCI H1975 (human non-small cell lung cancer cell lines); experiment: Growth inhibition test in tumor cells (CCK8), NCI-H1975; type: cell-based; settings: 72 h
[6] = system: MDA-MB-453 (human breast cancer cell lines); experiment: Growth inhibition test in tumor cells (CCK8), MDA-MB-453; type: cell-based; settings: MDA-MB-453 cells, 72 h
Method: Growth Inhibition Tests of a Series of Compounds in Different Tumor Cells
i. Cell lines: A431 (human epithelial carcinoma cell lines), A549 (human lung cancer cell lines), NCI H1975 (human non-small cell lung cancer cell lines (HCC), HCC 827 (human non-small cell lung cancer cell line), MDA-MB-453 (human breast cancer cell lines)
MDA-MB-453 cell line: 90% L15+10% FBS; trypsin (a 0.25% (W/V) solution was prepared with […], 0.53 mM EDTA was added);
i) Logarithmic growth phase cells were collected and counted, the cells were suspended again with complete medium,
ii) The cell concentration was adjusted to an appropriate concentration, inoculated to 96 holes, each of which with 100 μL cells suspension.
iii) The cells were incubated in a 37° C., 100% relative humidity and 5% CO2 incubator, for 24 h.
i) Logarithmic growth phase cells were collected and counted, the cells were suspended again with complete medium, the cell concentration was adjusted to an appropriate concentration (determined according to the results of cell density optimization test), inoculated to 96 plates, each of which with […] cells suspension. The cells were incubated in a 37° C., 100% relative humidity and 5% CO2 incubator for 24 h.
ii) The test compounds were diluted to the corresponding concentration stated by culture medium, and the cells were inoculated as 25 μL/hole. The final concentration of the compound was from 10 μM to 0 μM, with a gradient of 4 times, and 10 concentration points totally.
iii) The cells were incubated in a 37° C., 100% relative humidity, 5% CO2 incubator for 72 h.
iv) Absorbing the culture medium, the complete medium containing 10% CCK-8 was added and incubated in the incubator of 37° C. for 2-4 h.
v) After a slight shake, the absorbance at 450 nm was measured by SpectraMax M5 Microplate Reader, taking the absorbance at 650 nm as a reference, the inhibition rate was calculated.
The IC50 curve fitting was performed by using the software Graphpad Prism 5 and the calculation formula log (inhibitor) vs. response to calculate the IC50 value.

[7] = system: HCC 827 (human non-small cell lung cancer cell line); experiment: Growth inhibition test in tumor cells (CCK8), HCC827; type: cell-based; settings: HCC 827 cells, 72 h

Chain of Her-2 enzyme (P04626 23-1255): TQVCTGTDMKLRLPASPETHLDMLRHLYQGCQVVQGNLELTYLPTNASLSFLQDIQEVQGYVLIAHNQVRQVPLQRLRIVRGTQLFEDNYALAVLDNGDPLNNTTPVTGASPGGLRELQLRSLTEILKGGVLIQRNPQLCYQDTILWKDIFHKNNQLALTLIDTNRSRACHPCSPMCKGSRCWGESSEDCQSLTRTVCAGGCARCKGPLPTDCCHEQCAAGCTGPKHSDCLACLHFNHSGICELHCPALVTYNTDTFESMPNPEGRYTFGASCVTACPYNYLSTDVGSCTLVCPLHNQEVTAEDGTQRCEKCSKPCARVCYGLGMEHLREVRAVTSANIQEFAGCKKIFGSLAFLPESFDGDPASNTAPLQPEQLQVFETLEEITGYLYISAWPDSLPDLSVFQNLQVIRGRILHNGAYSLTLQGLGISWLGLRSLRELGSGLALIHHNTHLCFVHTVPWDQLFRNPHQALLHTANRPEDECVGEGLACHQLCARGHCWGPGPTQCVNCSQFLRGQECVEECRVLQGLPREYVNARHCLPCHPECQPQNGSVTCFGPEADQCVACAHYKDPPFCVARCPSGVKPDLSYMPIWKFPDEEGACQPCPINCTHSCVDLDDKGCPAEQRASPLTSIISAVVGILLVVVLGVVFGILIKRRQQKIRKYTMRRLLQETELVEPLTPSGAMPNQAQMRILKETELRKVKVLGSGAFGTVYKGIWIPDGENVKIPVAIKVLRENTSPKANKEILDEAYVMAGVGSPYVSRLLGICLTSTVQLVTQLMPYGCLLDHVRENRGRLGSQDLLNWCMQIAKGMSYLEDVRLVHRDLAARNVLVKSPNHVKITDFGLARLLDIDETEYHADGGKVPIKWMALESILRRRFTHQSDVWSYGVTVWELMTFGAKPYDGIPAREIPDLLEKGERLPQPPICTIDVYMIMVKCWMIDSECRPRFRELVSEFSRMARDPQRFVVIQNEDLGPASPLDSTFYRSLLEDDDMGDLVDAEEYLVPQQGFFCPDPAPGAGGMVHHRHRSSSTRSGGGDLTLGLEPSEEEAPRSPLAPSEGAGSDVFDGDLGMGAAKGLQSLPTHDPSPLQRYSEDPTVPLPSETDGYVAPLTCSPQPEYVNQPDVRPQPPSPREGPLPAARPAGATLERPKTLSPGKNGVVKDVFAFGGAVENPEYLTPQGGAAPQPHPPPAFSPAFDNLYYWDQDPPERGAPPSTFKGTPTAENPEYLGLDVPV

SMILES | IC50 [2] [nM] | IC50 [3] [nM] | IC50 [4] [nM] | IC50 [6] [nM] | IC50 [7] [nM] | RTV d22 [1] | T/C (%) d22 [1] [%] | Inhibition rate (%) d22 ([1]; listed as Positive control) | IC50 [5] [nM]
CN(C)CC=CC(=O)Nc1cc2c(Nc3ccc(F)c(Cl)c3)ncnc2cc1O[C@H]1CCOC1 [Afatinib, N-[4-[(3-chloro-4-fluorophenyl)amino]-7-[[(3S)-tetrahydro-3-furyl]oxy]-6-quinazolinyl)-4-(dimethylamino)-but-2-enamide, reference compound] | 6780 | – | – | – | – | 1.67 ± 0.20 | 22.44 | 67.6** % | –
C=C(Cl)C(=O)Nc1cc2c(Nc3ccc(F)c(Cl)c3)ncnc2cc1OCCOCC [Embodiment 27, N-(4-(3-chloro-4-fluorophenylamino)-7-(2-ethoxyethoxy)quinazolin-6-yl)2-chloroacrylamide] | – | 369 | – | 3.72 | 33.2 | – | – | – | 37.1
C=C(Br)C(=O)Nc1cc2c(Nc3ccc(F)c(Cl)c3)ncnc2cc1OCCOCC [Embodiment 28, N-(4-(3-chloro-4-fluorophenylamino)-7-(2-ethoxyethoxy)quinazolin-6-yl)2-bromoacrylamide] | – | 572 | – | 15.1 | 6.4 | – | – | – | 39.4
CCOCCOc1cc2ncnc(Nc3ccc(F)c(Cl)c3)c2cc1NC(=O)/C=C/Br [Embodiment 30, (E)-N-(4-(3-chloro-4-fluorophenylamino)-7-(2-ethoxyethoxy)quinazolin-6-yl)-3-bromoacrylamide] | – | 297 | – | 4 | 4.87 | – | – | – | 8.22
CCOCCOc1cc2ncnc(Nc3ccc(F)c(Cl)c3)c2cc1NC(=O)/C=C/Cl [Embodiment 31, (E)-N-(4-(3-chloro-4-fluorophenylamino)-7-(2-ethoxyethoxy)quinazolin-6-yl)-3-chloroacrylamide] | – | – | – | – | – | – | – | – | 7.43
CCOCCOc1cc2ncnc(Nc3ccc(F)c(Cl)c3)c2cc1NC(=O)/C=C\Cl [Embodiment 32, (Z)—N-(4-(3-chloro-4-fluorophenylamino)-7-(2-ethoxyethoxy)quinazolin-6-yl)-3-chloroacrylamide] | 4000 | – | – | – | – | – | – | – | 1.6
CCOCCOc1cc2ncnc(Nc3ccc(F)c(Cl)c3)c2cc1NC(=O)/C=C/CN(CC)CC [Embodiment 33, (E)-N-(4-(3-chloro-4-fluorophenylamino)-7-(2-ethoxyethoxy)quinazolin-6-yl)-4-(diethylamino)but-2-enamide] | 3530 | – | 10.9 | – | – | – | – | – | –
CCOCCOc1cc2ncnc(Nc3ccc(F)c(Cl)c3)c2cc1NC(=O)/C=C/C(F)(F)F [Embodiment 36, (E)-N-(4-(3-chloro-4-fluorophenylamino)-7-(2-ethoxyethoxy)quinazolin-6-yl)-4,4,4-trifluorobut-2-enamide] | – | 148 | – | 18.3 | 0.153 | – | – | – | 27.6
CCOCCOc1cc2ncnc(Nc3ccc(F)c(Cl)c3)c2cc1NC(=O)/C=C/C(=O)OC [Embodiment 37, methyl (E)-4-(4-((3-chloro-4-fluorophenylamino)-7-(2-ethoxyethoxy)quinazolin-6-yl)amino)-4-oxobut-2-enoate] | – | 207 | – | 21.6 | 0.987 | – | – | – | 35.2
CCOCCOc1cc2ncnc(Nc3ccc(F)c(Cl)c3)c2cc1NC(=O)/C=C\C#N [Embodiment 38, (Z)—N-(4-(3-chloro-4-fluorophenylamino)-7-(2-ethoxyethoxy)quinazolin-6-yl)-3-cyanoacrylamide] | – | 94.8 | – | 0.68 | 5.56 | – | – | – | 18.4

More lines, in order of falling IC50 [3], values ahead:

IC50 [2] [nM] | IC50 [3] [nM] | IC50 [4] [nM] | IC50 [6] [nM] | IC50 [7] [nM] | SMILES | RTV d22 [1] | T/C (%) d22 [1] [%] | Inhibition rate (%) d22 ([1]; listed as Positive control) | IC50 [5] [nM]
– | 64.1 | – | 2.56 | 2.9 | CCOCCOc1cc2ncnc(Nc3ccc(OCC(F)(F)F)c(Cl)c3)c2cc1NC(=O)/C=C/CN(C)C [Embodiment 13, (E)-N-(4-(3-chloro-4-(2,2,2-trifluoroethoxy)phenylamino)-7-(2-ethoxyethoxy)quinazolin-6-yl)-4-(dimethylamino)but-2-enamide] | – | – | – | 107
– | 54.5 | – | 58.2 | 0.538 | C=C(F)C(=O)Nc1cc2c(Nc3ccc(F)c(Cl)c3)ncnc2cc1OCCOCC [Embodiment 26, N-(4-(3-chloro-4-fluorophenylamino)-7-(2-ethoxyethoxy)quinazolin-6-yl)-2-fluoroacrylamide] | – | – | – | 72.5
7560 | 43 | 148 | – | – | COC[C@@H](C)Oc1cc2ncnc(Nc3ccc(F)c(Cl)c3)c2cc1NC(=O)/C=C/CN(C)C [Embodiment 2, (R,E)-N-(4-(3-chloro-4-fluorophenylamino)-7-(2-methoxy-1-methylethoxy)quinazolin-6-yl)-4-(dimethylamino)but-2-enamide] | – | – | – | 49.9
– | 20.1 | – | 1.66 | 3.43 | CCOCCOc1cc2ncnc(Nc3ccc(OCCOC)c(Cl)c3)c2cc1NC(=O)/C=C/CN(C)C [Embodiment 15, (E)-N-(4-(3-chloro-4-(2-methoxyethoxy)phenylamino)-7-(2-ethoxyethoxy)quinazolin-6-yl)-4-(dimethylamino)but-2-enamide] | – | – | – | 7.3
1960 | 16.7 | 482 | – | – | COC[C@H](C)Oc1cc2ncnc(Nc3ccc(F)c(Cl)c3)c2cc1NC(=O)/C=C/CN(C)C [Embodiment 3, (S,E)-N-(4-(3-chloro-4-fluorophenylamino)-7-(2-methoxy-1-methylethoxy)quinazolin-6-yl)-4-(dimethylamino)but-2-enamide] | – | – | – | 66.5
– | 13.7 | – | 2.53 | 0.343 | CCOCCOc1ccc(Nc2ncnc3cc(OCCOCC)c(NC(=O)/C=C/CN(C)C)cc23)cc1Cl [Embodiment 17, (E)-N-(4-(3-chloro-4-(2-ethoxyethoxy)phenylamino)-7-(2-ethoxyethoxy)quinazolin-6-yl)-4-(dimethylamino)but-2-enamide] | – | – | – | 6.17
– | 11.4 | – | 3.43 | 1.47 | C#CC(=O)Nc1cc2c(Nc3ccc(F)c(Cl)c3)ncnc2cc1OCCOCC [Embodiment 25, N-(4-(3-chloro-4-fluorophenylamino)-7-(2-ethoxyethoxy)quinazolin-6-yl)propiolamide] | – | – | – | 49.3
– | 6.49 | – | 12.7 | 0.538 | CCOCCOc1cc2ncnc(Nc3ccc(NCCS(C)(=O)=O)c(Cl)c3)c2cc1NC(=O)/C=C/CN(C)C [Embodiment 20, (E)-N-(4-(3-chloro-4-((2-(methylsulfonyl)ethyl)amino)phenylamino)-7-(2-ethoxyethoxy)quinazolin-6-yl)-4-(dimethylamino)but-2-enamide] | – | – | – | 65.6
– | 6.01 | – | 5.67 | 0.153 | C=CC(=O)Nc1cc2c(Nc3ccc(F)c(Cl)c3)ncnc2cc1OCCOCC [Embodiment 22, N-(4-(3-chloro-4-fluorophenylamino)-7-(2-ethoxyethoxy)quinazolin-6-yl)acrylamide] | – | – | – | 51.8
– | 3.38 | – | 130 | 3.95 | C=CS(=O)(=O)Nc1cc2c(Nc3ccc(F)c(Cl)c3)ncnc2cc1OCCOCC [Embodiment 24, N-(4-(3-chloro-4-fluorophenylamino)-7-(2-ethoxyethoxy)quinazolin-6-yl)ethenesulfonamide] | – | – | – | 13.7
